Test results published in patent US7053177B1, “Random peptides that bind to gastro-intestinal tract (GIT) transport receptors and related methods” (Cytogen Corporation, priority 1997, dated 2006).
Ends that are not written are not given here. * marks the point of attachment. Dansyl = CN(C)c1cccc2c(S(=O)(=O)*)cccc12

Legend:
[1] = test system: P100 membrane fraction of Caco-2 cells; experiment: Binding of dansylated peptides to P100 fractions (peptide/particle correlation); details: compared with scrambled PAX2 control
Method: Caco-2 cell membrane (P100) and cytosolic (S100) fractions were prepared using a modification of the method described in Kinsella, B. T., O'Mahony, D. J. and G. A. FitzGerald, 1994, J. Biol. Chem. 269(47): 29914–29919. Confluent Caco-2 cell monolayers (grown in 75 cm^2 flasks for up to 1 week at 37° C. and 5% CO2) were washed twice in Dulbecco's PBS (DPBS) and the cells were harvested by centrifugation at 1000 rpm after treatment with 10 mM EDTA-DPBS. The cells were washed 3 times in DPBS and the final cell pellet was resuspended in 3 volumes of ice cold HED buffer (20 mM HEPES (pH 7.67), 1 mM EGTA, 0.5 mM dithiothreitol, 1 mM phenylmethylsulphonyl fluoride (PMSF)). The cells were allowed to swell for 5 min on ice prior to homogenization for 30 sec. The homogenates were centrifuged at 40,000 rpm for 45 min at 4° C. The supernatant (S100) was removed and the pellet (P100) was resuspended in HEDG buffer (20 mM HEPES (pH 7.67), 1 mM EGTA, 0.5 mM dithiothreitol, 100 mM NaCl, 10% glycerol, 1 mM PMSF). Protein concentrations were determined using the Bradford assay (Bradford, M. M., 1976, Anal. Biochem. 72: 248–254).
Binding of peptide and/or peptide-coated PLGA particles to membrane (P100) and cytosolic (S100) fractions was assessed by detection of the dansyl moiety incorporated in the peptide. Costar ninety six well ELISA plates were coated with S100 and P100 fractions (100 μg/ml in 0.05 M NaHCO3) overnight at 4° C. The plates were blocked with 0.5% bovine serum albumin in DPBS for 1 h at room temperature and washed 3 times in 1% BSA-DPBS. Peptide-coated particles or peptides were dispersed in the same buffer and added to the plates at concentrations in the range 0.0325–0.5 mg/well. […] The plates were incubated for 1 h at room temperature. The wells were washed 3 times in 1% BSA-DPBS and 100 μl of goat anti-mouse IgGλ:HRP antibody (Southern Biotechnology 1060-05; 1:10,000) was added per well. The plates were incubated for 1 h at room temperature. After washing 3 times in 1% BSA-DPBS 100 μl of TMB substrate (3,3′,5′,5-tetramethylbenzidine; Microwell Peroxidase Substrate System (Kirkegaard and Perry Laboratories 50-76-00)) was added and the optical density was measured at 650 nm at various time intervals.
Binding of dansylated peptides to P100 fractions was assessed to determine if peptide binding was predictive of peptide-coated particle binding.

[2] = test system: P100 membrane fraction of Caco-2 cells; experiment: Dansylated peptide ELISA: relative binding of PAX2 and HAX42 peptides to P100 fractions (ratio to ZElan021); details: HAX42 peptides, ratio to ZElan021 = 1.00
How it was run: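 Plates coated overnight at 4 °C with Caco-2 P100 membrane fraction (normally 100 μg/ml, pH 9.6) and blocked with 2% Marvel/PBS were incubated with dansylated peptides. Binding was detected with anti-mouse λ-HRP and TMB, read at 650 nm, and expressed relative to ZElan021.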

fixed Caco-2 cells [3] = experiment: Competition ELISA: synthetic peptides versus GST-peptide fusions on fixed Caco-2 cells; details: peptide from 100 μg/ml serially diluted; GST fusion 10 μg
Method: Caco-2 cells were fixed, treated with phenylhydrazin and blocked as described above. Synthetic peptides (100 μg/ml) were applied in duplicate to Caco-2 cells and serially diluted down the 96-well plate. The corresponding GST-peptide fusion protein (10 μg) was added to each well and the plates were incubated for 2h at room temperature with agitation. Binding of the GST-peptide fusion proteins to the cells was assayed using the ELISA technique described above.

[4] = test system: rat gastro-intestinal tract (closed loop); experiment: Transport of preselected phage libraries in rat closed loop, detected by oligonucleotide hybridization/autoradiography; details: hPEPT1 pool; in words
[5] = Animal Study 3: intraduodenal open loop leuprolide acetate particles, plasma leuprolide; format: in vivo, Wistar rats; details: intraduodenal 600 μg vs 12.5 μg subcutaneous
Method: An intraduodenal open loop model study was carried out on Wistar rats (300–350 g). Group 1 was administered leuprolide acetate (12.5 μg) subcutaneously. Group 2 was administered intraduodenally uncoated leuprolide acetate particles (600 μg, 1.5 ml).

BSA = BSA (Bos taurus, UniProt P02769); experiment: Receptor ELISA of phage on BSA (background control protein); format: binding; details: Table 4; phage panned on hPEPT1
[6] = test system: P100 membrane fraction of Caco-2 cells; experiment: GST-PAX2 peptides: relative binding to P100 fractions (ratio to GST-HAX42); details: GST-peptide 20 μg/ml; binding to plastic subtracted; GST-HAX42 = 1.00
Method: The peptides and proteins were analyzed by a dansylated peptide ELISA method in which 96 well plates were coated overnight at 4° C. with 100 μl/well coating protein (normally 100 μg/ml P100 membrane fraction) in 0.05M carbonate buffer pH9.6. Nonspecific binding was blocked using 200 μl/well, 2% Marvel/PBS for 2 hours at 37° C. prior to incubation with dansylated peptides. The plates were washed three times with PBS/0.05% Tween 20 and after each subsequent incubation step. […] A buffer blank control was included to ensure that background binding to plastic was not due to the antibodies used in the assay system. […] The plates were then incubated with an anti-mouse λ-HRP conjugated antibody (Southern Biotech 1060-05) at a 1:10,000 dilution in blocking solution, 100 μl/well for 1 hour at room temperature. Plates were developed using 75 μl/well Bionostics TMB substrate and incubated for approximately 10 minutes. The developing reaction was stopped using Bionostics Red Stop solution (25 μl/well), and the optical density of the plates was read at 650 nm.
After subtraction of the GST-peptide binding to plastic from P100 binding values, the binding of GST-PAX2 peptides were represented as a ratio of GST-HAX42 binding to P100, which was given the arbitrary value of 1.00. The following ratios were determined from binding to P100 of GST-peptides at a peptide concentration of 20 μg/ml. […]

fixed Caco-2 cells [7] = experiment: Effect of thrombin cleavage on binding of GST-peptide fusions to fixed Caco-2 cells; details: in words
Method: Binding of intact and thrombin-cleaved GST-peptide fusions to fixed Caco-2 cells was compared.
Thirty micrograms of each GST-peptide was treated with bovine thrombin (1 μ/ml; 0.4 NIH units; Sigma CN.T9681) for 18h at room temperature in 20 mM Tris-HCl pH8.0, 150 mM NaCl, 2.5 mM CaCl2. Controls were similarly treated without addition of thrombin. Ten micrograms of each GST-peptide fusion was removed for PAGE analysis, and 10 μg of fusions were added in duplicate to the fixed Caco-2 cells before 5-fold serial dilutions (1% BPT diluent). The fusions were allowed to bind for 1h at room temperature. Following 6 washes with 1% BPT, binding was assayed by ELISA.

fixed C2BBe1 cells = experiment: Competition ELISA: dansylated peptides versus GST fusion proteins on fixed C2BBe1 cells; format: binding; details: 5 μg/ml concentration used in competition assays
Method: (§1) The standard ELISA procedure was modified as follows. GST fusion proteins and peptides were diluted to an appropriate concentration in PBS containing 1% BSA and 0.05% Tween 20. Peptides were titered, a constant concentration of diluted GST protein was added to titered peptides and the mixture was incubated one hour at room temperature. Following five washes, an anti-GST monoclonal antibody was added (Sigma, St. Louis Clone GST-2 diluted 1:10,000 in 1% BPT) and incubated one hour. After five more washes goat anti-mouse IgG2b-HRP was added (Southern Biotechnology Associates Inc., Birmingham, Ala., diluted 1:4000 in 1% BPT) and incubated one hour. After five washes plates were developed with TMB peroxidase substrate (Kirkegard and Perry, Gaithersburg, Md.). All data is presented with background binding subtracted.
Data is presented as O.D. vs. peptide concentration and as percent inhibition of GST-P31 binding vs. peptide concentration. Uncompeted GST-P31 binding was considered as 100% binding.
FIGS. 10A–10C present a compilation of data generated by competition ELISA of GST-P31, GST-PAX2, GST-SNi10 and GST-HAX42 versus various dansylated peptides on fixed C2BBe1 cells. IC50 values are in μM and include ranges determined from multiple assays. The GST/C2BBe1 column is a summary of GST protein binding to fixed C2BBe1 cells.

fixed Caco-2 cells [8] = experiment: ELISA of GST fusion proteins on fixed Caco-2 cells; format: binding; details: in words
Method: Fixed Caco-2, C2BBe1, and A431 cell plates were prepared by growing cells on tissue culture treated microtiter plates. When cells were confluent, plates were fixed with 10% formaldehyde, washed twice with PBS and stored with 0.5% BSA-PBS at −20° C. […] The standard ELISA procedure was followed at this point.
as §1, with “GST” for “GST fusion”, “proteins” for “proteins and peptides”, “Tween20 (1% BPT),” for “Tween 20. Peptides were titered, a constant concentration of diluted GST protein was added to”, “titered” for “titered peptides”, “and” for “and the mixture was”, “washes” for “washes,”

BSA, sequence (P02769 25-607): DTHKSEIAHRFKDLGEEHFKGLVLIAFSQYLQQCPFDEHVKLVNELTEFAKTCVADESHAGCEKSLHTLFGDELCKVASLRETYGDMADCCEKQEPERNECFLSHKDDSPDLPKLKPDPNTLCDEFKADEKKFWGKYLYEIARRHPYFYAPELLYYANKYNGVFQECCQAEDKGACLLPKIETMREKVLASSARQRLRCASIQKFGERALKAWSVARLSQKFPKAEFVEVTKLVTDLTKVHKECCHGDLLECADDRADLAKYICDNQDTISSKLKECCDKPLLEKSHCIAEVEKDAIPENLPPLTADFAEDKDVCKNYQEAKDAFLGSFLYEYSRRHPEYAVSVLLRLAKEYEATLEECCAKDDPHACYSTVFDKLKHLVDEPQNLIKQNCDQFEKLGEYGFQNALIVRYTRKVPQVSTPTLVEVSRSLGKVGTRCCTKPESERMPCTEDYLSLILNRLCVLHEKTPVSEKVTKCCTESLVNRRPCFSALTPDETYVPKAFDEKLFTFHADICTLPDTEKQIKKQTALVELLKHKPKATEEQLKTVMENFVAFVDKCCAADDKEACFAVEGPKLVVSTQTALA

H-K(Dansyl)SDHALGTNLRSDNAKEPGDYNCCGNGNSTGRKVFNRRRPSAIPT-NH2 (cysteines drawn unpaired) [ZElan021]
Binding of dansylated peptide to P100 fraction ([1]; initial assay): strong binding | Binding of dansylated peptide to P100 fraction ([1]; repeat assay): significant binding | Binding value at 20 μg/ml ([2]; 20 μg/ml): 1.00 | Binding value at 25 μg/ml ([2]; first column): 1.00 | Binding value at 25 μg/ml ([2]; second column): 1.00 | Binding value at 25 μg/ml ([2]; third column): 1.00 | Binding value at 50 μg/ml ([2]; first column): 1.00 | Binding value at 50 μg/ml ([2]; second column): 1.00 | Inhibition of GST-HAX42 binding to fixed Caco-2 cells (fixed Caco-2 cells [3]): not inhibited

SARDSGPAEDGSRAVRLNGVENANTRKSSRSNPRGRRHP (not fully specified) [Peptide P31]
Binding to / presence in the intestine samples [4]: preferential binding | Presence in the portal circulation [4]: found | Presence in the systemic circulation [4]: found in the systemic circulation | Plasma levels of leuprolide relative to subcutaneous injection [5]: enhanced plasma levels of leuprolide | BSA (BSA): 0.075 OD

GST-PAX2-106: GST fusion of truncated peptide derived from PAX2, SEQ ID NO: 188 (TNAKHSSHNRRLRTRSRPN; also: GST fusion)
Value (binding to P100 as ratio of GST-HAX42 binding) [6]: 2.71 | Effect of cleavage with thrombin on detection of binding to fixed Caco-2 cells (fixed Caco-2 cells [7]): significantly reduced

GST-HAX42: GST-fusion protein from HAX42 (SDHALGTNLRSDNAKEPGDYNCCGNGNSTGRKVFNRRRPSAIPT; cysteine pairing not given here; also: GST fusion)
Value (binding to P100 as ratio of GST-HAX42 binding) [6]: 1.00 | Crossreactivity of GST fusion to ZElan018 (PAX2) and ZElan021 (HAX42) (fixed C2BBe1 cells): exhibited crossreactivity | Binding to fixed Caco-2 or C2BBe1 cells relative to GST control (fixed Caco-2 cells [8]): weak to moderate binding
